Measured values published in ChEMBL document CHEMBL4396867, “Identification of 5-Substituted 2-Acylaminothiazoles That Activate Tat-Mediated Transcription in HIV-1 Latency Models” (J Med Chem, 2019).
In brackets after ≈: the same amount, converted by molar mass.

How the values were obtained:
[1] = Aqueous solubility of the compound in phosphate buffer at pH 6.5 by nephelometry; format: physicochemical
[2] = Aqueous solubility of the compound in 0.01M HCl at pH 2 by nephelometry; format: physicochemical

Row | Compound | solubility kinetic [1] [µM] | solubility kinetic [2] [µM]
1 | Cc1cnc(NC(=O)CCCOc2cncc(Cl)c2)s1 | 3.1 to 6.3 (≈ 0.967 to 1.96 µg/mL) | 1.6 to 3.1 (≈ 0.499 to 0.967 µg/mL)
2 | O=C(CCCOc1cccc(C(F)(F)F)c1)Nc1ncc(C(F)(F)F)s1 | < 1.6 | < 1.6
3 | CC(C)c1cnc(NC(=O)CCCOc2ccccc2)s1 | < 1.2 | < 1.2
4 | N#Cc1cnc(NC(=O)CCCOc2ccccc2)s1 | 1.1 to 2.2 (≈ 0.316 to 0.632 µg/mL) | 1.1 to 2.2 (≈ 0.316 to 0.632 µg/mL)
5 | Cc1cnc(NC(=O)CCCOc2cccc(Cl)c2)s1 | < 1.1 | < 1.1
6 | Cc1cnc(NC(=O)CCCOc2cccc(Cl)n2)s1 | < 1.2 | < 1.2
7 | Cc1cnc(NC(=O)CCCOc2cccc(C#N)c2)s1 | < 1.1 | < 1.1
8 | Cc1cnc(NC(=O)CCCOc2cccc(C(F)(F)F)c2)s1 | < 1.1 | < 1.1
9 | N#Cc1cnc(NC(=O)CCCOc2cccc(C(F)(F)F)c2)s1 | < 1.6 | < 1.6
10 | N#Cc1cnc(NC(=O)CCCOc2cccc(Cl)c2)s1 | < 1.6 | < 1.6
11 | O=C(CCCOc1ccccc1)Nc1ncc(Cl)s1 | < 1.2 | < 1.2
12 | Cc1cnc(NC(=O)CCCOc2ccccc2)s1 | < 1.1 | 1.1 to 2.3 (≈ 0.304 to 0.636 µg/mL)
13 | Cc1cnc(NC(=O)NCCOc2ccc(Cl)c(C)c2)s1 | < 1.6 | 1.6 to 3.1 (≈ 0.521 to 1.01 µg/mL)
